Series [1] in a line: Intrinsic clearance in rat. The series is classed as ADME.
Series [2] is described as follows: Lipophilicity, log D of compound at pH 7 by HPLC analysis. The conditions noted are these: buffer. Format: physicochemical.
The nature of series [3]: Total clearance in rat. Format: ADME. The following applies: in vivo.
Series [4] can be described thus: MRT in rat. Format: ADME. The conditions noted are these: in vivo.
Series [5] is described as follows: Clearance in human Hepatocyte. Format: ADME, cell-based. The following applies: hepatocytes, read-out: CLH.
Series [6] concerns the target T1, Indoleamine 2,3-dioxygenase 1 (Homo sapiens, UniProt P14902). As to the kind of experiment: Inhibition of recombinant His-tagged IDO1 (unknown origin) expressed in Escherichia coli preincubated for 30 mins followed by substrate tryptophan addition and measured after 60 mins by fluorescence based assay.
Series [7] deals with T1, Indoleamine 2,3-dioxygenase 1. Briefly: Inhibition of IDO1 in human HeLa cells stimulated with IFNgamma using L-tryptophan as substrate incubated for 48 hrs by fluorescence based assay. The series is classed as cell-based.
Series [8] can be described thus: Unbound clearance in dog. The series is classed as ADME, Canis lupus familiaris. The following applies: in vivo.
Series [9] is described as follows: Unbound clearance in rat. Format: ADME. The following applies: in vivo.
A further series concerns the target CYP450 (Homo sapiens, UniProt P04798+P05177+P05181+P08684+P10632+P10635+P11509+P11712+P13584+P20813+P20815+P20853+P24462+P24903+P33260+P33261+P51589+P78329+P98187+Q02928+Q08477+Q16678+Q16696+Q5TCH4+Q6VVX0+Q7Z449+Q8TAV3+Q96SQ9+Q9HB55). Briefly: Inhibition of CYP450 (unknown origin). Format: ADME, protein assay.
A short description of series [10]: Chemical stability of compound in AIBN assessed as parent compound remaining measured after 24 hrs. The conditions noted are these: read-out: Stability. Format: physicochemical.
Series [11] addresses T2, Nuclear receptor subfamily 1 group I member 2 (Homo sapiens, UniProt O75469).
T2 sequence (O75469 whole entry): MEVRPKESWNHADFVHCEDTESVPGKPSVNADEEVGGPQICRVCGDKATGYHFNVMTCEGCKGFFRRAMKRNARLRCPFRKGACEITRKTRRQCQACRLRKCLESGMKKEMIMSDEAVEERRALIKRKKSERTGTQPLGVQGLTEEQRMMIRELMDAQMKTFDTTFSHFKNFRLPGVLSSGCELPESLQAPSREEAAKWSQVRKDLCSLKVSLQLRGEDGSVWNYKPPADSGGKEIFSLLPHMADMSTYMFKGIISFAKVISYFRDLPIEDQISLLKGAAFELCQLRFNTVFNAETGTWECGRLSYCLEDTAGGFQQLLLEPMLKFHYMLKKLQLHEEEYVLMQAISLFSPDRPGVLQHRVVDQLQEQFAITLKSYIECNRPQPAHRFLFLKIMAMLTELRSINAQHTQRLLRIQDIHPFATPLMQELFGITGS
Briefly: Activation of PXR (unknown origin).

Series [12] is described as follows: Chemical stability of compound in H2O2 assessed as parent compound remaining measured after 24 hrs. The series is classed as physicochemical. The following applies: read-out: Stability.
In series [13] the target is Tryptophan 2,3-dioxygenase (Homo sapiens, UniProt P48775). As to the kind of experiment: Inhibition of TDO in human SW480 cells incubated for 48 hrs using L-tryptophan as substrate by fluorescence based assay. The series is classed as cell-based.
The nature of series [14]: Oral bioavailability in rat. Format: ADME, organism-based. The conditions noted are these: in vivo.
Series [15] can be described thus: Apparent permeability of compound. The series is classed as ADME. The following applies: not told.
The nature of series [16]: Chemical stability of compound in 0.1 N NaOH assessed as parent compound remaining measured after 24 hrs. Format: physicochemical. The conditions noted are these: read-out: Stability.
For series [17], the system named is EMT6. Briefly: Antitumor activity against mouse EMT6 cells xenografted in BALB/c mouse assessed as reduction in tumor volume at 100 mg/kg, po bid in presence of anti-PD1 at 5 mg/kg, […] and measured for weekly twice relative to control. The series is classed as functional. The arrangement: scale not given: the % may be the effect or the level left.

Series [18] can be described thus: Clearance in dog. Format: ADME, Canis lupus familiaris. The following applies: in vivo.
A short description of series [19]: Thermal stability of compound assessed as parent compound remaining measured after 3 hrs. The series is classed as physicochemical. The conditions noted are these: read-out: Stability.
Series [20] addresses Indoleamine 2,3-dioxygenase 1 (Mus musculus, UniProt P28776). As to the kind of experiment: Inhibition of mouse IDO1 preincubated for 30 mins followed by substrate tryptophan addition and measured after 60 mins by fluorescence based assay.
Series [21] is described as follows: Chemical stability of compound in 0.01 N HCl assessed as parent compound remaining measured after 3 hrs. Format: physicochemical. The following applies: read-out: Stability.
Series [22] in a line: Half life in dog. The series is classed as ADME, Canis lupus familiaris. The conditions noted are these: in vivo.
Series [23] is described as follows: Chemical stability of compound in 0.01 N NaOH assessed as parent compound remaining measured after 3 hrs. The series is classed as physicochemical. The following applies: read-out: Stability.
Series [24] has as its system EMT6. Briefly: Antitumor activity against mouse EMT6 cells xenografted in BALB/c mouse assessed as reduction in tumor volume at 100 mg/kg, po bid and measured for weekly twice relative to control. The series is classed as functional. The arrangement: scale not given: the % may be the effect or the level left.
A short description of series [25]: Toxicity in rat assessed as adverse event. The conditions noted are these: in vivo.
A short description of series [26]: Oral bioavailability in dog. Format: ADME, organism-based, Canis lupus familiaris. The conditions noted are these: in vivo.
A short description of series [27]: Chemical stability of compound in 0.1 N HCl assessed as parent compound remaining measured after 24 hrs. The series is classed as physicochemical. The conditions noted are these: read-out: Stability.
Series [28] has as its target Indoleamine 2,3-dioxygenase 1 (Rattus norvegicus, UniProt Q9ERD9). Briefly: Inhibition of rat IDO1 preincubated for 30 mins followed by substrate tryptophan addition and measured after 60 mins by fluorescence based assay.

A word on the logD: it is lipophilicity at a set pH, counting ionised and neutral species. Broadly, the clearance is the rate of elimination divided by the concentration. For orientation: MRT means a mean duration of stay, worked out from the concentration-time curve. In general, pIC50 refers to the IC50 on a negative log10 scale, so that one unit is a factor of ten. The pEC50 is the EC50 on a negative log10 scale, so that one unit is a factor of ten. Broadly, the bioavailability is dose-corrected exposure relative to a reference, in per cent. As a reminder, the Papp is a coefficient for how fast a substance crosses the barrier. Usually half-life stands for how long it takes for the measured level to halve.

pEC50, pIC50: −log10 of the molar value.

T1 sequence (P14902 whole entry): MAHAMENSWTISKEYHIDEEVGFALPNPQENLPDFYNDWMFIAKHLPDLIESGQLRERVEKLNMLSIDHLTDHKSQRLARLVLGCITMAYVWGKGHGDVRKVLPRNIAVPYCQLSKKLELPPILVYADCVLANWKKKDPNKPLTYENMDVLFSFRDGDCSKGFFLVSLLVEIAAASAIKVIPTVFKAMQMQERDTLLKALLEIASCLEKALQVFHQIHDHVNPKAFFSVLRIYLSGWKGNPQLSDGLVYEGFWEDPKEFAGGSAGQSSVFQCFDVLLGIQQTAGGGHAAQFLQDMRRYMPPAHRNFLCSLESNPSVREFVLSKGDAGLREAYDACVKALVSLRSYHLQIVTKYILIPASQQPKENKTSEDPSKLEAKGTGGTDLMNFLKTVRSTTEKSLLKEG
Sequence of Tryptophan 2,3-dioxygenase (P48775 whole entry): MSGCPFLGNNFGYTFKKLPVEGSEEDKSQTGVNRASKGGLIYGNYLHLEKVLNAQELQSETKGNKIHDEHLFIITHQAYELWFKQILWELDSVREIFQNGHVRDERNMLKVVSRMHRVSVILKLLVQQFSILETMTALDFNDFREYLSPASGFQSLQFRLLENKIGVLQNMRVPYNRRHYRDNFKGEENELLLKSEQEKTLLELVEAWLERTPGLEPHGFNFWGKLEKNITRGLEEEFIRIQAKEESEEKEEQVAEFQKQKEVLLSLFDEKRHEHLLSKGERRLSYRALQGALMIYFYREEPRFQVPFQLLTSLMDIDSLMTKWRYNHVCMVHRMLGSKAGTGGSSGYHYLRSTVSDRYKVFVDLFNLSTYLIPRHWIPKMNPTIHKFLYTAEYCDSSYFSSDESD
Sequence of Indoleamine 2,3-dioxygenase 1 (Mus musculus, UniProt P28776) (P28776 whole entry): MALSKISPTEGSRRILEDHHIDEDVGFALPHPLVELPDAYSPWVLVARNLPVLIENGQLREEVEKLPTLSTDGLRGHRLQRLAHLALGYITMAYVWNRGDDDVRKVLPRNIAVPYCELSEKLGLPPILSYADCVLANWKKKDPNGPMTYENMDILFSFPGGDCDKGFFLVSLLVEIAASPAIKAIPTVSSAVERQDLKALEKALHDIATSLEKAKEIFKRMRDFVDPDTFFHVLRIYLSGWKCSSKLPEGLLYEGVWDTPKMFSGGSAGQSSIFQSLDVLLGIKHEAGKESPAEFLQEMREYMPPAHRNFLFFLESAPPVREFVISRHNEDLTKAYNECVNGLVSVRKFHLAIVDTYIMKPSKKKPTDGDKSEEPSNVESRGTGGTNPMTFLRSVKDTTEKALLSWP
Sequence of Indoleamine 2,3-dioxygenase 1 (Rattus norvegicus, UniProt Q9ERD9) (Q9ERD9 whole entry): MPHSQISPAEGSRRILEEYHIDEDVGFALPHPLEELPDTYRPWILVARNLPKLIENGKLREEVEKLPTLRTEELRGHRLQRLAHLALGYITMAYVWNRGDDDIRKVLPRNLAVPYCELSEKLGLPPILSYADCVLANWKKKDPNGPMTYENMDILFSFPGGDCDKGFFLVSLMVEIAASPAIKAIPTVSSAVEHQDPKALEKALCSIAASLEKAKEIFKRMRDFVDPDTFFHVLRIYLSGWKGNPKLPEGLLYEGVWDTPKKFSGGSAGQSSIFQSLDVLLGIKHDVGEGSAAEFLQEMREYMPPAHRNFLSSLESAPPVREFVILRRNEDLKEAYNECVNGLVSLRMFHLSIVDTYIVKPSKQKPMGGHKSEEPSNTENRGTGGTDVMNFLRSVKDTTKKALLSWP

For the molecule `CC(=O)NCCSc1nonc1/C(=N/O)N[C@H]1Cc2ccc(F)cc21`, the CLint scaled in series [1] stood at 1880 mL/min/kg; in series [5], 354 mL/min/kg. Moreover, the log distribution coefficient (logD) in series [2] is 2.46. The same molecule displayed a clearance in series [3] of 29 mL/min/kg. For the same molecule, the MRT in series [4] is 1 h.
Regarding `Nc1nonc1/C(=N/O)NC1Cc2cc(F)ccc21` (stereo not given), the pIC50 in series [6] was 6.13; in series [7], 6.82.
Take `O=C(CSc1nonc1/C(=N/O)N[C@H]1Cc2ccc(F)cc21)NCCO`: the CLint scaled was determined as 2500 mL/min/kg in series [1] and 108 mL/min/kg in series [5]. The same molecule showed a logD in series [2] of 2. This molecule also registered a clearance in series [3] of 42 mL/min/kg. Also, the MRT in series [4] was determined as 0.8 h.
Turning to `Nc1nonc1/C(=N/O)NC1CCCc2ccccc21` (stereo not given), in series [6], the pIC50 was 5.56.
In the case of `Nc1nonc1/C(=N/O)NC1Cc2cc(F)c(F)cc21` (stereo not given), the pIC50 in [6] was 6.41; in series [7], 7.12.
In the case of `NC(=O)CNc1nonc1/C(=N/O)N[C@H]1Cc2ccc(F)cc21`, the CLint scaled is 499 mL/min/kg in series [1] and 523 mL/min/kg in [5]. For the same molecule, in series [3], the clearance was found to be 17 mL/min/kg. The MRT in series [4] came out at 1.7 h.
`CC(=O)NCCNc1nonc1/C(=N/O)N[C@H]1Cc2ccc(F)cc21`: the CLint scaled in series [1] came to 3550 mL/min/kg; in series [5], 863 mL/min/kg. In [3], this molecule had a clearance of 51 mL/min/kg. This molecule displayed an MRT in [4] of 0.4 h.
On to `Nc1nonc1/C(=N/O)NC1Cc2ccccc2C1`, for which, in [6], the pIC50 is 4.36.
On to `NS(=O)(=O)NCCNc1nonc1/C(=N/O)N[C@H]1Cc2ccc(F)cc21`, for which the figures for the CLint scaled in series [1] and in series [5] were 463 mL/min/kg and 462 mL/min/kg, respectively. The molecule also yielded a logD in [2] of 2.4. For the same molecule, in series [3], the clearance worked out at 12 mL/min/kg. The molecule further displayed an MRT in series [4] of 2 h.
For the molecule `NS(=O)(=O)NCCSc1nonc1/C(=N/O)N[C@H]1Cc2ccc(F)cc21`, the CLint scaled turned out to be 977 mL/min/kg in series [1] and 616 mL/min/kg in [5]. The molecule also showed a logD in series [2] of 2.45. Besides, the clearance in series [3] came out at 14 mL/min/kg. The molecule further returned an MRT in [4] of 2.5 h.
In turn, `Nc1nonc1/C(=N/O)N[C@H]1Cc2ccc(F)cc21` came in with a CLint scaled in [1] of 7380 mL/min/kg. In series [2], this molecule displayed a logD of 2.7. This molecule also registered a clearance in [3] of 60 mL/min/kg. Moreover, the MRT in series [4] amounted to 0.4 h.
With `O=C(CNc1nonc1/C(=N/O)N[C@H]1Cc2ccc(F)cc21)NCCO`, the CL free stood at 88 mL/min/kg in [8] and 319 mL/min/kg in series [9]. Further, the pIC50 was under 4.30 against CYP450, under 5.00 in series [13], 7.55 in series [20] and 7.23 in [28]. The remaining at 24 h in [10] was 77.1%; in series [12] it was 97%; in series [16], 81.5%; in series [27], 96.2%. Besides, the CLint scaled came to 112 mL/min/kg in [1] and 48 mL/min/kg in series [5]. Also, the pEC50 in series [11] was under 4.52. Besides, the bioavailability in [14] came to 63%; in series [26], 67%. This molecule also returned a log distribution coefficient (logD) in series [2] of 1.9 to 2. Also, the values for the clearance in series [3] and in series [18] were 15 mL/min/kg and 6 mL/min/kg, respectively. In series [15], the Papp turned out to be 25 ×10⁻⁶ cm/s. Moreover, the MRT in series [4] was found to be 2.9 h. Further, the Activity is listed as 79% in the series on EMT6 [17], 15% with EMT6 [24] and “Non-Toxic” in series [25]. Moreover, the remaining at 3 h worked out at 88.4% in series [19], 98.1% in series [21] and 97.4% in [23]. Further, the half-life in series [22] was 360 min.
